In US7569724B2, “Carbamic acid compounds comprising an amide linkage as HDAC inhibitors” (Topotarget UK Limited, priority 2000, dated 2009):
Like-named read-outs stand apart in the source and are kept apart here.

How the values were obtained:
HDAC (HeLa cell extract) = experiment: Primary assay: deacetylase activity, HeLa cell extract as source of HDAC; type: biochemical, human; conditions: HeLa cell extract
In short: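 Crude HeLa extract (freeze-thaw in 60 mM TrisCl pH 8.0, 450 mM NaCl, 30% glycerol) was incubated 1 h at 37° C with a [³H]acetyl-labelled histone H4 N-terminal peptide in 20 mM Tris pH 7.4, 10% glycerol.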

human HDAC2 = target: T1, human HDAC2 (Homo sapiens, UniProt Q92769); experiment: Primary assay: deacetylase activity, recombinantly produced HDAC2; type: biochemical; conditions: for IC50: recombinant HDAC2, read-out: HDAC Inhibition (IC50 unless otherwise specified) HDAC2
T1 construct: Full length human HDAC2 was subcloned; Flag (C); His6 (from pAcHLT-A vector; purified on Ni-NTA) (N); made in house; host or cells: SF9 insect cells (baculovirus)
From the text: (§1) Briefly, this assay relies on the release of radioactive acetate from a radioactively labelled histone fragment by the action of HDAC enzyme. Test compounds, which inhibit HDAC, reduce the yield of radioactive acetate. Signal (e.g., scintillation counts) measured in the presence and absence of a test compound provide an indication of that compound's ability to inhibit HDAC activity. Decreased activity indicates increased inhibition by the test compound.
(§2) The histone fragment was an N-terminal sequence from histone H4, and it was labelled with radioactively labelled acetyl groups using tritiated acetylcoenzyme A (coA) in conjunction with an enzyme which is the histone acetyltransferase domain of the transcriptional coactivator p300. […] The acetylated peptide was then separated from free acetyl coA by size exclusion chromatography on Sephadex G-15 (Sigma G-15-120), using distilled H2O as the mobile phase.
(§3) After purification of the radiolabelled histone fragment, it was incubated with a source of HDAC (e.g., an extract of HeLa cells (a rich source of HDAC), recombinantly produced HDAC1 or HDAC2) and any released acetate was extracted into an organic phase and quantitatively determined using scintillation counting. By including a test compound with the source of HDAC, that compound's ability to inhibit the HDAC was determined.
(§4) Amplification of recombinant viruses was performed according to the Pharmingen Instruction Manual.
(§5) For protein production, 2×10^7 cells were infected with the appropriate recombinant virus for 3 days. Cells were then harvested and spun at 3,000 rpm for 5 minutes. They were then washed twice in PBS and resuspended in 2 pellet volumes of lysis buffer (25 mM HEPES pH 7.9, 0.1 mM EDTA, 400 mM KCl, 10% glycerol, 0.1% NP-40, 1 mM AEBSF). Resuspended cells were frozen on dry ice and thawed at 37° C. 3 times and centrifuged for 10 minutes at 14,000 rpm. […] Incubation was carried out at 4° C. for 1 hour on a rotating wheel. The slurry was then centrifuged at 500 g for 5 minutes. Beads were washed twice in 1 ml of wash buffer (25 mM HEPES pH7.9, 0.1 mM EDTA, 150 mM KCl, 10% glycerol, 0.1% NP-40, 1 mM AEBSF). Protein was eluted 3 times in 300 μl elution buffer (25 mM HEPES pH 7.9, 0.1 mM EDTA, 250 mM KCl, 10% glycerol, 0.1% NP-40, 1 mM AEBSF) containing increasing concentrations of imidazole: 0.2 M, 0.5 M and 1 M. Each elution was performed for 5 minutes at room temperature. Eluted protein was kept in 50% glycerol at −70° C.
(§6) A source of HDAC (e.g., 2 μL of crude HeLa extract, 5 μL of HDAC1 or HDAC2; in elution buffer, as above) was incubated with 3 μL of radioactively labelled peptide along with appropriate dilutions of candidate compounds (1.5 μL) in a total volume of 150 μL of buffer (20 mM Tris pH 7.4, 10% glycerol). The reaction was carried out at 37° C. for one hour, after which the reaction was stopped by adding 20 μL of 1 M HCl/0.4 M sodium acetate. […] Radioactivity was measured using a Tri-Carb 2100TR Liquid Scintillation Analyzer (Packard).
(§7) Percent activity (% activity) for each test compound was calculated as: % activity={(S^C−B)/(S^o−B)}×100 wherein S^C denotes signal measured in the presence of enzyme and the compound being tested, S^o denotes signal measured in the presence of enzyme but in the absence of the compound being tested, and B denotes the background signal measured in the absence of both enzyme and compound being tested.

human HDAC1 = target: T2, human HDAC1 (Homo sapiens, UniProt Q13547); experiment: Primary assay: deacetylase activity, recombinantly produced HDAC1; type: biochemical; conditions: recombinant HDAC1; read-out: HDAC Inhibition (IC50 unless otherwise specified) HDAC1
T2 construct: Full length human HDAC1 was cloned by PCR; Flag (C); His6 (from pAcHLT vector; purified on Ni-NTA) (N); made in house; host or cells: SF9 insect cells (baculovirus)
From the text: as §1, §2, §3
Full length human HDAC1 was cloned by PCR using a λgt11 Jurkat cDNA library (Clontech-HL5012b). The amplified fragment was inserted into the EcoRI-Sall sites of pFlag-CTC vector (Sigma-E5394), in frame with the Flag tag. A second PCR was carried out in order to amplify a fragment containing the HDAC1 sequence fused to the Flag tag.
as §4, §5, §6, §7

HeLa cells = experiment: Secondary assay: cell proliferation WST-1, HeLa; type: cell-based; conditions: Homo sapiens, 48 h, read-out: Cell Proliferation Inhibition WST-1 (IC50 unless otherwise specified) HeLa
In short: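 Absorbance at 450 nm (reference 690 nm); % activity vs untreated after blank subtraction, IC50 fitted with top 100 and bottom 0.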

[1] = system: K11 HPV E7 transformed human keratinocyte line; experiment: Secondary assay: cell proliferation WST-1, K11; type: cell-based; conditions: Homo sapiens, Keratinocyte, 48 h, read-out: Cell Proliferation Inhibition WST-1 (IC50 unless otherwise specified) K11
Method: (§8) Compounds with HDAC inhibition activity, as determined using the primary assay, were subsequently evaluated using secondary cell-based assays. The following cell lines were used:
K11—HPV E7 transformed human keratinocyte line provided by Pidder Jansen-Duerr, Institut für Biomedizinische Alternsforschung, Innsbruck, Austria.
(§9) Cells were plated in 96-well plates at 3-10×10^3 cells/well in 100 μL of culture medium. The following day, different concentrations of candidate compounds were added and the cells incubated at 37° C. for 48 h. Subsequently, 10 μL/well of WST-1 reagent was added and the cells reincubated for 1 hour. After the incubation time, absorbance was measured.
(§10) WST-1 is a tetrazolium salt which is cleaved to formazan dye by cellular enzymes. An expansion in the number of viable cells results in an increase in the overall activity of mitochondrial dehydrogenases in the sample. This augmentation in the enzyme activity leads to an increase in the amount of formazan dye formed, which directly correlates to the number of metabolically active cells in the culture. The formazan dye produced is quantified by a scanning multiwell spectrophotometer by measuring the absorbance of the dye solution at 450 nm wavelength (reference wavelength 690 nm).
(§11) Percent activity (% activity) in reducing the number of viable cells was calculated for each test compound as: % activity={(S^C−B)/(S^o−B)}×100 wherein S^C denotes signal measured in the presence of the compound being tested, S^o denotes signal measured in the absence of the compound being tested, and B denotes the background signal measured in blank wells containing medium only.
(§12) IC50 values were calculated using the software package Prism 3.0 (GraphPad software Inc., San Diego, Calif.), setting top value at 100 and bottom value at 0.

JURKAT human T-cell line = experiment: Secondary assay: cell proliferation WST-1, Jurkat; type: cell-based; conditions: Homo sapiens, 48 h, read-out: Cell Proliferation Inhibition WST-1 (IC50 unless otherwise specified) Jurkat
Method: as §8
JURKAT—Human T-cell line (ATCC no. TIB-152).
as §9, §10, §11, §12

[2] = read-out: HDAC Inhibition (IC50 unless otherwise specified) HeLa

T2 sequence (Q13547 whole entry): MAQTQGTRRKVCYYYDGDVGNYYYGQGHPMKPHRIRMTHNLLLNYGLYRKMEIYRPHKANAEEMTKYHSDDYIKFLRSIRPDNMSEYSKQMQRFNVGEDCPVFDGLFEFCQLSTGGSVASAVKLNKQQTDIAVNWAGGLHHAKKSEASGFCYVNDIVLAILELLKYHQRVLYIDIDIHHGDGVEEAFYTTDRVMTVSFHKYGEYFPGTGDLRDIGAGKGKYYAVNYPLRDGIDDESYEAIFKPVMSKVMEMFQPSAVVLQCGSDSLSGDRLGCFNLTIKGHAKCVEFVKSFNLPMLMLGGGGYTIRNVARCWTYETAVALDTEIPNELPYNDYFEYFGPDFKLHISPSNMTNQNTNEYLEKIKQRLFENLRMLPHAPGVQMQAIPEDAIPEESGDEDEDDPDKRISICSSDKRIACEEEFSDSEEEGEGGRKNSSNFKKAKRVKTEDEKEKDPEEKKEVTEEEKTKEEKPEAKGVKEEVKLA
T1 sequence (Q92769 whole entry): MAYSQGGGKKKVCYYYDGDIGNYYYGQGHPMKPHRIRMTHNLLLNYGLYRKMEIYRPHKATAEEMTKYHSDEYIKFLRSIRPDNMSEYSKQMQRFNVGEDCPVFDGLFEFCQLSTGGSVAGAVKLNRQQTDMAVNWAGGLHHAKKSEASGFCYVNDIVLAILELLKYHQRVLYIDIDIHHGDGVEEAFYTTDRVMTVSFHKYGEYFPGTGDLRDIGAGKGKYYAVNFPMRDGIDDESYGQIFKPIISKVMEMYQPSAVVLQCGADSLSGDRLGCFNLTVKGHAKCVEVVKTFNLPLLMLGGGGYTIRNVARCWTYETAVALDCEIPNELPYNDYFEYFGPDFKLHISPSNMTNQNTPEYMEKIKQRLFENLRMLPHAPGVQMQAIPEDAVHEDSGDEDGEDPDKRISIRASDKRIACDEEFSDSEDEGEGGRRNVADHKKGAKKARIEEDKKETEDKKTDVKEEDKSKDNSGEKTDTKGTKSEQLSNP

| SMILES | HDAC Inhibition HDAC2, percent (human HDAC2; recombinant HDAC2, @ 5 μM) [% @ 5 μM] | IC50 (human HDAC2) [nM] | melting point | IC50 (HDAC (HeLa cell extract); [2]) [nM] | IC50 (HDAC (HeLa cell extract); comparative tables, no unit in cell, read-out: HeLa IC50) [nM] | IC50 (human HDAC1) [nM] | IC50 (HeLa cells) [nM] | HDAC Inhibition HeLa, percent (HDAC (HeLa cell extract); @ 1 μM) [% @ 1 μM] | percent HDAC inhibition at the stated concentration (HDAC (HeLa cell extract); comparative tables, @ 1 μM) [% @ 1 μM] | IC50 [1] [nM] | IC50 (JURKAT human T-cell line) [nM] | HDAC Inhibition HeLa, percent (HDAC (HeLa cell extract); @ 500 nM) [% @ 500 nM] |
| --- | --- | --- | --- | --- | --- | --- | --- | --- | --- | --- | --- | --- |
| CN(C)c1ccc(C(=O)NCCC(=O)NO)c2ccccc12 [PX082530, 4-Dimethylamino-napthalene-1-carboxylic acid (2-hydroxycarbamoyl-ethyl)-amide] | 18 |  |  |  |  |  |  | 13 | 13 |  |  |  |
| O=C(/C=C/C=C/c1ccccc1)NC[C@H]1CC[C@H](C(=O)NO)CC1 [PX105552, 4-[((2E)(4E)-5-Phenylpenta-2,4-dienoylamino)methyl] cyclohexanecarboxylic acid hydroxyamide] |  | 967 | 210 to 212 °C | 500 |  |  | 10000 |  |  | 10000 | 7900 |  |
| CC(/C=C/C(=O)NCCCC(=O)NO)=C\c1ccccc1 [PX105554] |  | 31000 |  | 21900 |  |  | 114000 |  |  |  | 20000 |  |
| CN(C)c1ccc(/C=C/C=C/C(=O)NCCCC(=O)NO)cc1 [PX105669] |  | 28000 |  |  |  |  |  |  |  |  |  |  |
| O=C(CCCCCNC(=O)C(c1ccccc1)c1ccccc1)NO [PX106489, 6-Diphenylacetylamino-hexanoic acid hydroxyamide] |  |  | 55 to 56 °C | 3300 |  | 4000 | 60000 |  |  |  |  |  |
| O=C(/C=C/c1cccc(NC(=O)/C=C/c2ccccc2)c1)NO [PX106513, N-Hydroxy-3-[3-(3-phenylacryloylamino)-phenyl]-acrylamide] |  |  | 178 °C |  |  | 438 |  |  | 43 |  |  | 43 |
| O=C(/C=C/C#Cc1ccccc1)NCCCCCC(=O)NO [PX106525, (E)-5-Phenylpent-2-en-4-ynoic acid (5-hydroxycarbamoylpentyl)amide] |  |  | 146 to 148 °C | 28 |  | 37 | 4700 |  |  | 2800 | 3600 |  |
| O=C(CCCCCNC(=O)[C@H](Cc1c[nH]c2ccccc12)NC(=O)CCCc1c[nH]c2ccccc12)NO [PX117767, N-Hydroxy-6-[((2S)-3-(1H-indol-3-yl)-2-{[4-(1H-indol-3-yl)butanoyl]amino}propanoyl)-amino]hexanamide] |  |  | 94 to 96 °C | 90 |  |  | 15000 |  |  | 6200 | 3000 |  |
| O=C(CCCCCNC(=O)CC/C=C/c1ccccc1)NO [PX117797, (E)-N-[6-(Hydroxyamino)-6-oxohexyl]-5-phenyl-4-pentenamide] |  |  | 131 to 133 °C | 688 |  |  | 21000 |  |  | 21000 | 5600 |  |

Further lines, with some results ahead:

| HDAC Inhibition HDAC2, percent (human HDAC2; recombinant HDAC2, @ 5 μM) [% @ 5 μM] | IC50 (human HDAC2) [nM] | melting point | IC50 (HDAC (HeLa cell extract); [2]) [nM] | IC50 (HDAC (HeLa cell extract); comparative tables, no unit in cell, read-out: HeLa IC50) [nM] | IC50 (human HDAC1) [nM] | IC50 (HeLa cells) [nM] | SMILES | HDAC Inhibition HeLa, percent (HDAC (HeLa cell extract); @ 1 μM) [% @ 1 μM] | percent HDAC inhibition at the stated concentration (HDAC (HeLa cell extract); comparative tables, @ 1 μM) [% @ 1 μM] | IC50 [1] [nM] | IC50 (JURKAT human T-cell line) [nM] | HDAC Inhibition HeLa, percent (HDAC (HeLa cell extract); @ 500 nM) [% @ 500 nM] |
| --- | --- | --- | --- | --- | --- | --- | --- | --- | --- | --- | --- | --- |
|  | 688 | 102 to 104 °C |  |  |  |  | O=C(CCCCCNC(=O)c1ccccc1)NO [PX083449, N-(5-Hydroxycarbamoyl-pentyl)-benzamide] |  |  |  |  |  |
|  | 480 | 135 to 136 °C | 466 | 466 | 175 | 2300 | CN(C)c1ccc(C(=O)NCCCCCC(=O)NO)c2ccccc12 [PX089275, 4-Dimethylamino-napthalene-1-carboxylic acid (5-hydroxycarbamoyl-pentyl)-amide] |  |  |  |  |  |
|  | 312 | 131 to 132 °C | 165 |  | 250 | 6300 | COc1ccc(C(=O)NCCCCCC(=O)NO)cc1 [PX089276, N-(5-Hydroxycarbamoyl-pentyl)-4-methoxy-benzamide] |  |  |  |  |  |
|  |  | 201 °C (dec.) | 69 |  | 69 | 5200 | O=C(CCCCCNC(=O)c1nc2ccccc2[nH]1)NO [PX105824, 1H-Benzimidazole-2-carboxylic acid (5-hydroxycarbamoylpentyl)amide] |  |  |  |  |  |
|  | 38 | 129 to 131 °C | 54 |  | 31 | 3800 | CC(/C=C/C(=O)NCCCCCC(=O)NO)=C\c1ccccc1 [PX105829, (2E,4E)-4-Methyl-5-phenylpenta-2,4-dienoic acid (5-hydroxycarbamoylpentyl)amide] |  |  |  |  |  |
